Test results published in patent publication US12264299B2, “Detergent composition” (SYMRISE AG, priority 2018, dated 2025).

System: Corynebacterium xerosis ATCC373 and Staphylococcus aureus ATCC6538
Experiment: Microbial counts on inoculated synthetic fabric after washing and drying
Assay type: cell-based
Conditions: comparison of groups, 24 and 72 hours results
Description: The objective of the following examples and comparison examples has been to evaluate bactericide and bacteriostatic performance of a specific active composition (SymClariol, Symrise AG) at 0.25% and 1% in a regular fabric softener composition.
Inoculate Corynebacterium xerosis ATCC373 and Staphylococcus aureus ATCC6538 in white synthetic fabric 89% polyester and 11% elastane. SymClariol stands for 1,2-decanediol and is a commercially available product distributed by Symrise AG.
Cut the fabric in pieces of 10 cm×10 cm (100 cm^2) to be inoculate.
It was used: • Corynebacterium xerosis ATCC373 strain in saline solution 0.85% • Staphylococcus aureus ATCC6538 strain in saline solution 0.85% • Sterile Saline solution to wet the fabric • Liquid laundry detergent Tixan Ipê batch 065091 16:30 manufactured in March, 2016 and expiration date March, 2018 • Regular Fabric Softener+Active 1 (SymClariol at 0.25%) • Regular Fabric Softener+Active 2 (SymClariol at 1%) • Regular Fabric Softener Placebo • Wash machine Electrolux
All materials were analyzed before the beginning of the tests and had <10 CFU/g for bacteria and fungi and absence of pathogens. An initial wash of the tissue was carried out with the purpose of reducing the initial microbiological count and subsequent counting for a reduction confirmation of 10 CFU/g and absence of pathogens. […]

## CCCCCCCCC(O)CO (stereo not shown) [SymClariol, 1,2-decanediol]
  bactericide and bacteriostatic performance (in words): improved the bactericide and bacteriostatic performance
